{"source": "paper PMC5073322", "about": "“Novel Natural Product-like Caged Xanthones Bearing a Carbamate Moiety Exhibit Antitumor Potency and Anti-Angiogenesis Activity In vivo” (Scientific Reports, 2016)", "key": {"A549/taxol": {"test_system": "A549/taxol", "assay": "MTT antiproliferative assay, Taxol-resistant A549", "type": "cell-based", "conditions": "read-out: IC50 A549/taxol; MTT, 72 h; Taxol-resistant A549", "method": "(§1) The inhibition of tumour cell growth was measured by a modified tetrazolium (MTT) salt assay, as previously described[39]. Cells were cultured in a 96-well plate and treated with culture medium alone or different concentrations of the compounds. The cells were incubated for 72 h, and then, the MTT assay reagent was added. After a 4 h incubation, the formazan product was quantitated at 570 nm. The IC50 values (the concentrations that gave rise to 50% inhibition of cell viability) were calculated using GraphPad Prism 6 using a variable slope (four parameters)."}, "A549/cisplatin": {"test_system": "A549/cisplatin", "assay": "MTT antiproliferative assay, cisplatin-resistant A549", "type": "cell-based", "conditions": "read-out: IC50 A549/cisplatin, MTT, 72 h", "method": "as §1"}, "HepG2 tumours": {"test_system": "HepG2 tumours", "assay": "HepG2 hepatoblastoma xenograft in nude mice", "type": "in vivo", "conditions": "20 days; for inhibition of the tumour volume: IV, twice-daily", "protocol": "Given the in vitro anti-tumour cell activity of 8n, we continued to evaluate its in vivo effect in hepatoblastoma xenograft models using previously reported methods, and the water-soluble anti-cancer drug 5-fluorouracil (5-FU) was used as a positive control. After tumours were established, the mice were IV injected with 2.5, 5, 10 or 50 mg/kg 8n; the lead compound DDO-6101 and antitumour drug 5-FU were used as controls. All mice had normal weights and quality of life in in vivo tests. […] The in vivo activity of 8n was also evaluated after oral administration. […] This observation may be attributed to the improved physicochemical properties of 8n compared to those of DDO-6101, such as aqueous solubility and cell membrane permeability, which were provided by modification with the carbamate moiety.\nFigure 7 (A) The tumour diameters were measured and used to calculate the tumour volumes. The HepG2 xenograft-bearing mice were intravenously injected with 2.5, 5, 10 and 50 mg/kg 8n for 20 days. (B) After 20 days, mice were sacrificed and the individual tumours were weighed. *p < 0.05, […]; Student’s t-test (n = 6). (C) The tumour diameters were measured and used to calculate the tumour volumes. The HepG2 xenograft-bearing mice were orally administered 50 mg/kg 8n, 50 mg/kg DDO-6101 or 10 mg/kg 5-FU for 20 days.\nAll studies were performed in compliance with the relevant guidelines and regulations. Tumours on female nude mice were established by injecting 1×10^7 HepG2 cells on the dorsal surface. After four weeks, tumours of approximately 150 mm^3 were cut into pieces that were 3 mm×3 mm×3 mm in size and were then implanted in the dorsal surface of other female nude mice. One week later, mice implanted with xenografts of 100 mm^3 were selected, randomized, and […] injected with 2.5, 5, or 10-mg/kg 8n or vehicle daily for another three weeks. The tumour dimensions were measured daily with vernier calipers, and the tumour volumes were calculated using the formula: volume = (width)^2 × length/2."}, "HUVECs": {"test_system": "HUVECs", "assay": "Transwell invasion assay", "type": "cell-based, human", "conditions": "0.25 μM", "protocol": "GA was reported to inhibit tumour angiogenesis and may be a viable drug candidate for anti-angiogenesis and anticancer therapies. Therefore, the anti-angiogenesis activity of the caged xanthone derivative 8n was evaluated. Human umbilical vein endothelial cells (HUVECs) were used in all experiments. Cell migration is critical for endothelial cells to form blood vessels during angiogenesis, tumour growth and metastasis. […] Endothelial cell invasion is a critical part of angiogenesis; therefore, a transwell assay was performed to evaluate the ability of inactivated HUVECs to pass through the transwell membrane barrier in the presence of 8n.\nFigure 8 8n had anti-angiogenesis activity in vitro and in vivo. (A) A wound-healing assay was used to evaluate the motility of HUVECs after treatment with 8n for 24 h. (B) Changes in cell motility were evaluated using a transwell assay of cell migration and invasion. (C) The effect of 8n on tube formation by HUVECs. HUVECs were incubated with 8n for 6 h and then transferred to Matrigel for 6 h. (D) Zebrafish embryos treated with blank control or 1, 10, or 50 μg/ml of 8n.\nA transwell migration assay was performed as previously described with minor modifications. HUVECs (4×10^4 cells per well) with compound 8n were seeded in the top of transwells (Corning Incorporated) and allowed to migrate for 4 h at 37 °C, 5% CO2 and 1% O2. […]"}, "[1]": {"test_system": "Caspase-3 and PARP in HepG2 cells", "assay": "Western blot of apoptosis-related proteins", "type": "cell-based, human", "conditions": "HepG2, 24 h", "protocol": "Figure 6 (A) Morphological changes in cancer cells and nuclei. (B) 8n induced apoptosis in HepG2 cells. Cultured HepG2 cells were treated with the indicated concentrations of 8n for 48 h. The cells were then were stained with DAPI and observed by fluorescence microscopy. (C) 8n induces apoptosis in a dose-dependent manner. HepG2 cells were treated with different concentrations of 8n for 48 h, and Annexin V and propidium iodide staining were performed. (D) The percentages of early apoptotic and total apoptotic cells were quantified using flow cytometry. *p < 0.05; **p < 0.01. (E) The expression of apoptotic-related proteins in HepG2 cells treated with 8n. HepG2 cells were treated with various concentrations of 8n for 24 h and were then harvested and lysed. The expression levels of Caspase-3, Cleaved Caspase-3, Bax, Bcl-2, PARP and cleaved PARP were measured by Western blotting. TEXT PRINTED IN THE PICTURE: (C) Compound 8n: Dead 1.50 % (Control); Late Apop./Dead 4.95 % (Control); Early Apop. 1.05 % (Control); Dead 1.95 % (0.1 μM); Late Apop./Dead 7.80 % (0.1 μM); Early Apop. 1.60 % (0.1 μM); Dead 7.81 % (0.3 μM); Late Apop./Dead 9.19 % (0.3 μM); Early Apop. […]\nThe cells were washed with PBS and lysed with ice-cold lysis buffer supplemented with protease inhibitors (Roche) for 30 min. The protein content of the supernatants of lysates was determined using a bicinchoninic acid assay. […]"}, "HepG2": {"test_system": "HepG2", "assay": "MTT antiproliferative assay, HepG2", "conditions": "read-out: IC50 HepG2; MTT, 72 h", "method": "as §1"}}, "data": [{"smiles": "CC(C)=CCC12OC(C)(C)C3CC(C=C4C(=O)c5c(OC(=O)N6CCC(N7CCCCC7)CC6)cccc5OC431)C2=O", "note": "(stereo not drawn) [Compound 8n]", "values": [{"measurement": "IC50", "setting": "A549/taxol", "result": "1900 ± 120", "unit": "nM"}, {"measurement": "IC50", "setting": "A549/cisplatin", "result": "1100 ± 170", "unit": "nM"}, {"measurement": "inhibition of the tumour volume", "setting": "HepG2 tumours; 2.5 mg/kg", "result": 27.97, "unit": "%"}, {"measurement": "inhibition of the tumour volume", "setting": "HepG2 tumours; 5 mg/kg", "result": 38.50, "unit": "%"}, {"measurement": "inhibition of the tumour volume", "setting": "HepG2 tumours; 10 mg/kg", "result": 48.36, "unit": "%"}, {"measurement": "inhibition of tumour growth", "setting": "HepG2 tumours; 50 mg/kg, oral, daily", "result": 30.12, "unit": "%"}, {"measurement": "invasion of inactivated HUVECs", "setting": "HUVECs", "result": "almost completely inhibited"}, {"measurement": "levels of cleaved caspase-3/PARP", "setting": "[1]", "result": "increased"}, {"measurement": "IC50", "setting": "HepG2", "result": "1320 ± 450", "unit": "nM"}]}]}
